# From patent US20250152580A1, “METHODS FOR TREATING IMMUNE DISEASES” (Ascentage Pharma (Suzhou) co., Ltd., priority 2022, published 2025)
# “Also recorded” adds a separate entry of the source.
# Tested on: CD4+CD45RBhigh T transfer IBD model
# Test: CD4+CD45RBhigh T transfer inflammatory bowel disease (IBD) model in CB17 SCID mice
# Assay type: in vivo
# Source text: 1. Experimental Protocol for CD4^+CD45RB^high T Transfer Inflammatory Bowel Disease (IBD) Model in CB17 SCID Mice.
# Balb/c mice and CB17 SCID were purchased from Zhejiang Vital River Laboratory Animal Technology Co., Ltd. (Zhejiang, China). Animals were housed and handled in a temperature-controlled environment with a 12-h light/12-h dark cycle. A total of 50 CB17 SCID mice were assigned to 5 groups by randomization based on body weight.
# CD4^+ T cells were isolated from the spleens of Balb/c mice using negative magnetic bead separation kit (Miltenyi Biotec) according to the manufacturers' instructions. The CD4^+CD45RB^high T and CD4^+CD45RB^low T cells were selected by flow cytometry and used for model construction. The isolated CD4^+CD45RB^high T cells were intraperitoneally injected into 40 recipient CB17 SCID mice with 5×10^5 cells per animal. Ten mice in Group 1 (G1) were intraperitoneally injected with 5×10^5 CD4^+CD45RB^low T cells as negative control group.
# 40 recipient CB17 SCID mice injected with CD4^+CD45RB^high T cells were assigned to four groups (n=10 for each group): G2, vehicle control (po, qd, from day 0 to day 42); G3, 30 mg/kg Cpd. 4 (po, qd, from day 0 to day 42); G4, 30 mg/kg Cpd. 4 (po, qd, from day 14 to day 42); G5, 100 mg/kg Cpd. 4 (po, qd, from day 14 to day 42); G6, positive control, anti-mTNF-α 25 mg/kg (ip, Q3D, from day 14 to day 42).
# Clinical signs of IBD were assessed every 3 day based on the scores of disease activity index (DAI) which was evaluated from two parameters using a scoring system from 0 to 4: stool consistency (0, normal stool; 1, soft but still formed stool; 2, soft and not formed stool; 3, very soft and wet stool; 4, watery diarrhea) and body weight loss (0, no body weight loos; 1, 1-5% body weight loss; 2, 6-10% body weight loss; 3, 11-20% body weight loss; 4, >20% body weight loss).
# At the end of experiment, the animals were euthanized, dissected and the entire colon was quickly removed and gently cleared of feces.
# The entire colon was weighed, and the total length was measured. […] Cpd.
# The colons were Swiss-rolled and fixed with neutralized PFA followed by H&E staining. After that, the pathologists from WuXi clinical pathological analysis platform, who were blinded to animal ID, reviewed the H&E staining and scored. […]
# At the end of the study (day 42), all the animals were sacrificed by CO2, and the colon tissues were collected and fixed in 10% formalin for pathological analysis (H&E and LFB staining). The histopathological score was evaluated microscopically in a blinded manner.
compound,measurement,setting,value
"O=C(NS(=O)(=O)c1ccc(NC[C@H]2COCCO2)c([N+](=O)[O-])c1)c1ccc(N2CCN(CC3=C(c4ccc(Cl)cc4)CC4(CCC4)CC3)CC2)cc1Oc1cnc2[nH]ccc2c1 [Cpd. 4, (S)-N-((4-(((1,4-dioxan-2-yl)methyl)amino)-3-nitrophenyl)sulfonyl)-2-((1H-pyrrolo[2,3-b]pyridin-5-yl)oxy)-4-(4-((6-(4-chlorophenyl)spiro[3.5]non-6-en-7-yl)methyl)piperazin-1-yl)benzamide]","disease activity index (DAI), clinical score of IBD","Cpd. 4 po qd: G3 30 mg/kg day 0-42, G4 30 mg/kg day 14-42, G5 100 mg/kg day 14-42, anti-mTNF-α 25 mg/kg ip Q3D day 14-42, compared with Vehicle",significantly reducing the clinical score; also recorded: significantly reduced
same,"pathological score (colon, H&E)","day 42, all Cpd. 4 groups, compared with Vehicle",significantly reduced; also recorded: significantly decreased
same,colon weight,"end of experiment, Cpd. 4 all treatment groups (G3, G4, G5), anti-mTNF-α 25 mg/kg ip Q3D, vehicle 439.1 mg",significantly decreased
same,colon length,"end of experiment, Cpd. 4 in G3 (30 mg/kg day 0-42) and G5 (100 mg/kg day 14-42), anti-mTNF-α 25 mg/kg ip Q3D, vehicle 7.72 cm",significantly increased
